# Test results from patent publication US9169247B2, “Tetrahydro-beta-carboline derivatives, synthesis and use thereof” (Southern Research Institute, priority 2009, dated 2015).
# What was measured:
# HT-29 = assay: Growth assay (Cell Titer Glo); format: cell-based, human; conditions: Homo sapiens, HT-29, 72 h, HT-29 colon
# Procedure: (§1) Compounds 2a-h were tested for tumor cell growth inhibitory activity using the human breast MDA-MB-231 and ZR75-1 tumor cell lines and the colon CACO-2, SW-1116, and HT-29 tumor cell lines.
# (§2) All human tumor cell lines were obtained from ATCC and grown under standard cell culture conditions at 37° C. in a humidified atmosphere with 5% CO2. Cells were grown in RPMI 1640 supplemented with 5% fetal bovine serum 2 mM glutamine, 100 units/ml penicillin, 100 units/ml streptomycin, and 0.25 μg/ml amphotericin. Cells were harvested at 70 to 90% confluence with trypsin/EDTA and used immediately Cell count and viability was determined by Trypan blue staining followed by hemocytometry. Only cultures displaying >95% cell viability were used for experiments. HMEC were grown according to the specifications from the supplier (Lonzo).
# (§3) Tissue culture microtiter 96-well plates were seeded with cells at a density of 5,000 cells/well. The plates were incubated for 18-24 hours prior to any treatment. All test compounds were solubilized in 100% DMSO and diluted with media to obtain a final DMSO concentration of 0.1%. Cell viability was measured 72 hours after treatment by the Cell Titer Glo Assay (Promega), which is a luminescent assay that is an indicator of live cells as a function of metabolic activity and ATP content. The assay was performed according to manufacturer's specifications. Luminescence was measured by a Perkin Elmer Victor® multi-label plate reader.^6
# (§4) Dose response curves were analyzed using Prism™ 4 software (GraphPad) to calculate IC50 values using a four parameter logistic equation.
# SW1116 = assay: Growth assay (Cell Titer Glo); format: cell-based; conditions: Homo sapiens, SW 1116; SW1116 colon; 72 h
# Procedure: as §1, §2, §3, §4
# CACO-2 = assay: Growth assay (Cell Titer Glo); format: cell-based; conditions: Homo sapiens; CACO-2 colon; 72 h
# Procedure: as §1, §2, §3, §4
# ZR75-1 = assay: Growth assay (Cell Titer Glo); format: cell-based; conditions: Homo sapiens, ZR-75-1; ZR75-1 breast; 72 h
# Procedure: as §1, §2, §3, §4
# [1] = test system: human MDA-MB-231 breast tumor cells; assay: Growth assay (Cell Titer Glo); format: cell-based; conditions: Homo sapiens, MDA-MB-231, 72 h, MDA-MB-231 breast; 72 h; Tables 3-5; read-out: IC50 value, μM, growth
# Procedure: as §2, §3, §4
Compound,IC50 (HT-29),IC50 (SW1116),IC50 (CACO-2),IC50 [1],melting point,IC50 (ZR75-1)
"COC(=O)[C@H]1Cc2c([nH]c3ccccc23)[C@H](c2ccccc2Br)N1C(=O)CCl [Compound 2b, Methyl (1S,3R)-1-(2-bromophenyl)-2-(2-chloroacetyl)-2,3,4,9-tetrahydro-1H-β-carboline-3-carboxylate]",1.16 µM,4.3 µM,1.6 µM,0.02 µM,,1.1 µM
"COC(=O)[C@H]1Cc2c([nH]c3ccccc23)[C@@H](c2cc(OC)ccc2OC)N1C(=O)CCl [Compound 2e, Methyl (1R,3R)-1-(2,5-dimethoxyphenyl)-2-(2-chloroacetyl)-2,3,4,9-tetrahydro-1H-β-carboline-3-carboxylate]",3.38 µM,7.2 µM,3.5 µM,4.25 µM,108 to 111 °C,5.7 µM
"COC(=O)C1Cc2c([nH]c3ccccc23)C(c2cc(OC)ccc2OC)N1C(=O)CCl [Compound 2h, Methyl (1R,3S)-1-(2,5-dimethoxyphenyl)-2-(2-chloroacetyl)-2,3,4,9-tetrahydro-4H-β-carboline-3-carboxylate]",5.59 µM,> 10 µM,0.29 µM,0.04 µM,228 to 230 °C,3.95 µM

# Further compounds by falling IC50 (HT-29), results first:
IC50 (HT-29),IC50 (SW1116),IC50 (CACO-2),IC50 [1],melting point,Compound,IC50 (ZR75-1)
6.12 µM,3.71 µM,3.04 µM,1.6 µM,105 to 108 °C,"COC(=O)[C@@H]1Cc2c([nH]c3ccccc23)[C@H](c2cc(OC)ccc2OC)N1C(=O)CCl [Compound 2g, Methyl (1S,3S)-1-(2,5-dimethoxyphenyl)-2-(2-chloroacetyl)-2,3,4,9-tetrahydro-1H-β-carboline-3-carboxylate]",4.13 µM
3.2 µM,1.05 µM,0.55 µM,0.25 µM,,"COC(=O)[C@@H]1Cc2c([nH]c3ccccc23)[C@@H](c2ccccc2Br)N1C(=O)CCl [Compound 2d, Methyl (1R,3S)-1-(2-bromophenyl)-2-(2-chloroacetyl)-2,3,4,9-tetrahydro-1H-β-carboline-3-carboxylate]",3.61 µM
0.77 µM,2.72 µM,0.1 µM,0.02 µM,,"COC(=O)[C@@H]1Cc2c([nH]c3ccccc23)[C@H](c2ccccc2Br)N1C(=O)CCl [Compound 2c, Methyl (1S,3S)-1-(2-bromophenyl)-2-(2-chloroacetyl)-2,3,4,9-tetrahydro-1H-β-carboline-3-carboxylate]",1.1 µM
